Measured values published in US11046647B2, “Activators of the unfolded protein response” (The Board of Trustees of the University of Illinois, priority 2018, dated 2021).

What was measured:
[1] = system: MCF-7 and TYS-Luc; test: Trypan Blue cell death plus or minus 2-APB, MCF-7 and TYS-Luc; format: cell-based, human
Description: ERα positive MCF-7 and TYS-Luc were treated with DMSO vehicle (Veh), or BHPI or (−)-105 plus or minus 2-APB for the indicated times. Cells death was determined using the instrument-based Trypan Blue exclusion assay. […] This is consistent with (−)-105 inducing powerful lethal activation of the anticipatory UPR pathway. (n=3±SEM).

[2] = system: CaOV-3 ovarian cancer cells; test: Automated Trypan Blue exclusion cell death assay, Caov-3; format: cell-based, human; details: 24 hours
Description: FIG. 33. 105, but not BHPI, kills therapy-resistant ovarian CaOV-3 ovarian cancer cells. (±)-105; Cell death assay: Automated Trypan Blue exclusion. (24 hours post (±)-105)
(§1) TRYPAN BLUE: For decades, viable cells have been measured by their ability to exclude the dye Trypan Blue. […] Dead cells, which have lost membrane integrity, take up the dye and are blue. Thus, the percentage of dead cells is the percentage of cells that are Trypan Blue positive out of the total cell population. Quantitative assessment of Trypan Blue uptake uses a cell counter from Fisher. Since the assay is instrument based, there is no observer bias in determining the percentage of Trypan Blue positive cells.
TRYPAN BLUE ASSAYS: Assays are performed on cells in 6 well plates: 300,000 cells are plated in each well of a 6-well plate in 3 ml of medium. After 24 hours, the DMSO vehicle or the indicated compound is added (in 1000th of the vol.) The cells incubated for an additional 24 hours, and then harvested in 0.25 ml of trypsin, followed after harvest by 0.75 ml of medium. The cells are spun down and resuspended in 100-200 μl of medium left that is over the cell pellet (resuspend cells by pipetting up and down a few times). Add 10 μl to 10 μl of trypan blue. Then 10 μl is inserted into the counting slide. […]

[3] = system: T47D, TYS and TDG cells; test: MTS proliferation assay (4 days), T47D, TYS and TDG; format: cell-based, human
Description: FIG. 30 compares the ability of BHPI and test compounds to inhibit proliferation of T47D, TYS and TDG cells. T47D cells were in medium containing 10 FBS (which contains estrogen), TYS-4 and TDG-1 cells were in medium containing 10% cd-FBS (estrogen depleted). Cells are plated at 2,000 cells/well in 96 well plates. After 24 hours in medium containing FBS or charcoal-dextran treated FBS (depleted of endogenous estrogens), the indicated concentration of each compound (in DMSO at 1/1000th of the volume of medium) was added. After 2 days the medium was changed, and the compounds were added again. After 2 additional days (4 days total) MTS assays are used to evaluate cell proliferation. (n=6 ±S.E.M.).

[4] = system: TYS-Luc cells; test: Long-term cell culture experiment (treat 2 weeks, regrow 4 weeks), MTS, TYS-Luc; format: cell-based, human; details: 1 μM for 2 weeks, then 4 weeks without drug
Description: To simulate the effect of several weeks of treatment of a tumor in a mouse xenograft, long-term cell culture experiments were performed. TYS-Luc cells (T47DERαY537S-Luc cells; ERαY537S is the most lethal ERα mutation seen in metastatic breast cancer) were plated at 4,000 cells/well in 96 well plates. […] After 2 weeks (medium change every 2 days) cell number was determined using MTS and a standard curve of absorbance versus cell number for TYS-Luc cells. Notes: (i) Bars denote the BHPI and (−)-105 arms of the experiment. No drug is present during regrow. […] This allows any surviving cells to regrow. After 4 weeks the cells were assayed using MTS. […] (Note: Visual inspection of the wells confirmed that there were no cells in the well treated for 2 weeks with active (−)-105.) To test whether the cells that regrew after BHPI treatment were resistant to BHPI they were re-treated for another cycle (BHPI Retreat) and shown to retain sensitivity to BHPI killing. (n=8 biological replicates ±SEM.

[5] = system: ERα positive breast cancer; test: Mouse xenograft model of ERα positive breast cancer (BHPI); format: in vivo; details: reasonable doses
[6] = system: OVCAR-3 cells
[7] = system: TYS-Luc and TDG-Luc cells; test: Xenograft studies using TYS-Luc and TDG-Luc cells (BHPI); format: in vivo, mouse; details: after 4 weeks
Text: In xenograft studies using TYS-Luc and TDG-Luc cells after 4 weeks the vehicle control breast tumors had roughly quadrupled in cells.

[8] = system: parental T47D cells; test: MTS growth assay, parental T47D cells; format: cell-based, human; details: 100 nM and 1 μM; 4 days
Description: (§2) ERα containing T47D human breast cancer cells able to survive in 1 μM BHPI were selected by clonal outgrowth. The effect of 100 nM and 1 μM BHPI and (−)-105 on growth of the (BHPI-sensitive) parental T47D cells and partially BHPI-resistant T47D clones 1,3,8, and 11 was evaluated. 4,000 cells/well were plated. Cell number was determined by MTS assay from a standard curve of absorbance versus cell number. […] Thus, in 4 days (−)-105 killed some, but not all, of the resistant cells.

[9] = system: ERα Negative MCF-10A cells; test: Trypan Blue exclusion cell death assay, MCF-10A; format: cell-based; details: 75 nM, 24 hours
Text: as §1
(§3) TRYPAN BLUE ASSAYS: Assays are performed on cells in 6 well plates: 300,000 cells are plated in each well of a 6-well plate in 3 ml of medium. After 24 hours, the DMSO vehicle or the indicated compound is added (in 1000th of the vol.) The cells incubated for an additional 24 hours, and then harvested in 0.25 ml of trypsin, followed after harvest by 0.75 ml of medium. The cells are spun down and resuspended in 100-200 μl of medium left that is over the cell pellet (resuspend cells by pipetting up and down a few times). Add 10 μl to 10 μl of trypan blue. Then 10 μl is inserted into the counting slide. After inserting the slide into the Fisher TC20 counting is automatic (these many cells are needed because an accurate ratio of Trypan Blue positive to Trypan Blue negative cells requires about 200 cells in the field the instrument counts).
In FIG. 28, neither the test compounds nor BHPI kill non-tumorigenic ERα Negative MCF-10A breast cells. ERα Negative MCF-10A cells were maintained for 24 hours in DMSO vehicle or 75 nM of BHPI or 75 nM of each of the indicated test compounds: 4, 6 and 105. Cell death was determined using the instrument-based Trypan Blue exclusion assay. (n=3±SEM).

[10] = system: partially BHPI-resistant T47D clones 1,3,8, and 11; test: MTS growth assay, partially BHPI-resistant T47D clones; format: cell-based, human; details: 100 nM and 1 μM; 4 days
Description: as §2

[11] = system: TDG cells; test: Trypan Blue exclusion cell death assay, TDG / TDG-Luc; format: cell-based, human; details: 24 hours; TDG-Luc
Text: as §1, §3
The Trypan Blue cell death assay was used to evaluate the ability of the active enantiomer of C-105 [(−)-105] to kill ERα positive TDG-Luc cells. For all studies, 300,000 TDG-Luc cells/well in 10% FBS were plated in a 6-well plate in triplicate. 24 hours after plating, the indicated concentrations the active enantiomer of (−)-105, or BHPI (top) ICI, or OHT (Lower left) or (+)-105 (lower right) were added. After 24 hours, the cells were harvested, and the % dead cells was determined by automated Trypan Blue exclusion using the Countess II automated hemocytometer. Percentage of viable cells was calculated by doing 100-(Cell Death %). (n=3±SEM).
TDG cells were incubated for 24 hours with 75 nM of BHPI or 75 nM of each of the indicated test compounds: 4, 6 and (±)-105 (enantiomers not separated). Cell death was determined using the instrument-based Trypan Blue exclusion assay. Structures are in the Synthesis section. […] (n=3±SEM).

[12] = system: T47D cells; details: 100, 500 and 1,000 nM; 24 hours; n=1
Description: One such change is loss of plasma membrane polarity. This is monitored using Annexin V. Dying cells also take up the dye propidium iodide. Propidium iodide (PI) fluoresces when it is intercalated into DNA. These assays monitor cells at specific stages of cell death.
FLOW CYTOMETRY (FITC) ASSAYS: Cells were seeded in 12-well plates, 75,000 cells/well, and allowed to adhere overnight. The next day, the indicated concentrations of raptinal (positive control), (−)-105, (±)-105, and (+)-105 were added and allowed to incubate at 37° C. for 24 hours (Final Volume: 1 ml, 0.1% DMSO). After incubation, cells were harvested and resuspended in 350 μl of cold Annexin binding buffer (10 mM HEPES, 140 mM NaCl, 2.5 mM CaCl2, pH 7.4) premixed with Annexin V-FITC and PI dyes. Samples were analyzed on a BD Biosciences LSRII flow cytometer, and data analysis was performed using FSC Express Version 5-6. Cell death was assessed relative to a DMSO treated control.
T47D, human breast cancer cells were plated at 75,000 cells/well. The next day, DMSO vehicle, 10 μM raptinal (control for 100% cell death), or 0, 50, 100 500 and 1,000 nM of BHPI or (±)-105, or 1,000 nM ICI/fulvestrant or 1,000 nM OHT was added. After 24 hours viable cells were determined by FACS using annexin V-FITC and propidium iodide dyes. (n=3 independent experiments ±SEM).
75,000 ERα positive T47D, human breast cancer cells, were plated/well. The next day, DMSO vehicle, 10 μM raptinal (control for 100% cell death), or 100 500 and 1,000 nM of (+)-105, or (−)-105 was added. After 24 hours viable cells were determined by FACS using annexin V-FITC and propidium iodide dyes. (n=1).

[13] = system: ERα positive and ERα negative cells; format: cell-based
Description: (§4) ALAMAR BLUE RAPTINAL ASSAYS: Cells were plated at 4,000-10,000 cells/well (96 well plate), usually in 50 μl of medium. After about 18 hours, an additional 50 μl of medium containing 2× the desired final concentration of the test compound (C-105) was added to each well. After 24 hours Alamar Blue reagent was added and fluorescence in the wells was read (BMG PheraStar or Molecular Devices Spectra Max M3 Microplate Reader). % relative death was determined by setting the reading for raptinal-treated cells to 100% dead cells and the reading for vehicle-treated cells to 0% dead cells.
ERα positive MCF-7 breast cancer, Caov-3 ovarian cancer and ECC-1 uterine cancer cells and ERα negative MDA-MB-231 human breast cancer cells and HeLa, human cervical carcinoma cells and MCF-10A human mammary epithelial cells were plated at 10,000 cells/well (96 well plate) in 50 μl of medium. After about 18 hours, an additional 50 μl of medium containing 2× the desired final concentration of the test compound (C-105) was added to each well (final vol. 100 μl/well). After 24 hours Alamar Blue reagent was added and fluorescence in the wells was read after 1 hour (BMG PheraStar Microplate Reader). % relative death was determined by setting the reading for 10,000 nM raptinal-treated cells to 100% dead cells and the reading for vehicle-treated cells to 0% dead cells. (Data is the average ±SEM of 3 independent experiments with 5 biological replicates for each sample within each independent experiment.)
FIG. 3 compares the ability of (±)-105 to kill ERα positive and ERα negative cells. The dose response tests the ability of (±)-105 to rapidly kill ERα positive and ERα negative cells. […] After 24 hours Alamar Blue reagent was added and fluorescence in the wells was read. % relative death was determined by setting the reading for […] raptinal-treated cells to 100% dead cells and the reading for vehicle-treated cells to 0% dead cells. […]

[14] = system: MCF-7Y537S (MCF-7 ERαY537S-luciferase) cells; test: Long-term cell culture experiment, MCF-7 ERαY537S-luciferase; format: cell-based, human; details: conditions as FIG. 15 (1 μM)
[15] = system: MCF-7 cells; test: Alamar Blue/raptinal 24-hour cell death assay, MCF-7; format: cell-based, human; details: 24-hour incubation, Alamar blue fluorescence
Description: FIG. 4. […] MCF7 (ERα) cells, 24 hour incubation, read out via Alamar Blue Fluorescence, Dead Control: Raptinal, n=3 (A, B). […] Orthotopic Mouse Xenograft breast cancers of TYS cells, Visualization by bioluminescent imaging. Treatment: 40 mg/kg daily (−)-105 for 3 days either by oral gavage or by intraperitoneal injection.
ALAMAR BLUE/RAPTINAL ASSAY: Live cells maintain a reducing environment. The non-fluorescent cell permeable ingredient of Alamar Blue® (resazurin) is taken up by cells. In living cells, it is reduced to the fluorescent compound resorufin. Using a standard curve of cell number versus fluorescence the number of live cells in a test sample can be determined. At high concentrations raptinal kills 100% of cells. The vehicle in which the test compound is dissolved is not toxic. Thus, after subtracting the blank for medium alone, the fluorescence reading for vehicle corresponds to 100% viable cells and the signal for raptinal corresponds to 0% viable cells. While this assay provides a less direct measurement of cell death than the trypan blue assay, it is more easily scaled up to large numbers of samples.
as §4
Preparative gram-scale chiral separation of (±)-1 yields enantiopure (R)-1 and (S)-1 with opposite optical rotations (Scheme 5). […] Values were obtained after 24-hour incubation utilizing Alamar blue fluorescence assay normalized to live and death controls (vehicle and raptinal treated). (S)-1 IC50 is >1 μM. Error shown as S.E.M.

With NCCOB(c1ccccc1)c1ccccc1 [Compound 2-APB] the “block of (−)-105-induced cell death” value ([1]; 45 and 60 min.) was “partially blocked” and the “block of (−)-105-induced cell death” value ([1]; 30 minutes) was “nearly completely blocked”.
With Cc1cccc2c1NC(=O)C2(c1ccc(O)cc1)c1ccc(O)cc1 [BHPI, reference compound] the “killing of Caov-3 cells” value [2] was “blocks growth of Caov-3 cells but does not kill them”, the inhibition of proliferation [3] was “effectively inhibit proliferation” and the “regrowth of cells after drug removal” value [4] was “robust regrowth”. The tumor growth [5] was “stopped tumor growth and induced rapid and substantial tumor regression”, the “tumor growth / detectability” value ([6]; OVCAR-3 orthotopic xenograft) was “strongly reduced tumor growth” and the tolerability in mice ([6]; both xenograft studies) was “well tolerated”. The tumor regression [7] was 97%-99.5%, the “effect on growth / cell number” value [8] was “blocked growth and killed many of the T47D cells” and the “cell death of MCF-10A cells” value [9] was “neither BHPI nor any of the test compounds induce significant death”. The “effect on growth / cell number” value [10] was “inhibited growth but could not stop growth of the resistant clones”.
For O=C1Nc2c(C(F)(F)F)cccc2C1(c1ccc(O)cc1)c1ccc(OC(F)(F)F)cc1 (single isomer, unassigned; (+)) [(+)-105, 3-(4-hydroxyphenyl)-3-(4-(trifluoromethoxy)phenyl)-7-(trifluoromethyl)indolin-2-one], the “killing of TDG-Luc cells, dose response” value [11] was “inactive and does not kill”, the “activity of enantiomers (cell death)” value [12] was “inactive” and the “effect in ERα positive and ERα negative cell lines” value [13] was “ineffective and not toxic”. For the same molecule, the “eradication of cells in long-term experiment” value [14] was “inactive”, the IC50 ([15]; normalized to vehicle and raptinal, listed as (S)-1) was over 1000 nM and the IC50 ([15]; Homo sapiens, MCF7, 24 h) was over 1000 nM.
